Some test systems named below: OVCAR-3 ovarian; OVCAR-4 ovarian; K-562 leukemia; UACC-62 melanoma; HL-60(TB) leukemia; SW-620 colon; MALME-3M melanoma; SN12C renal; MOLT-4 leukemia; SK-MEL-28 melanoma.
Experiment in all cases: DTP human tumour cell line panel, 48 h

Several values for one entry are separate records, joined by “and”; a condition that tells them apart may be missing. Equal entries are not always repeated.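 Values below derive from 48-hour exposures of cells grown in 96-well plates, with endpoints linearly interpolated between the two concentrations bracketing the appropriate inhibition level. GI50 is the concentration that inhibits growth by half. TGI is the concentration that stops growth completely.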

By TGI is commonly meant the concentration giving total growth inhibition. A lower TGI goes with more potent growth arrest. Usually GI50 stands for the concentration that inhibits growth by half.

`COC(=O)[C@H]1COC(=S)N1C(=O)[C@@H](C)[C@H](O)C(C)C`: the TGI with OVCAR-3 ovarian, in the assay with OVCAR-4 ovarian, in the assay with K-562 leukemia, in the assay on UACC-62 melanoma, in the assay with HL-60(TB) leukemia and with SW-620 colon was above 100 µM in each case. Moreover, the TGI in the assay on MALME-3M melanoma, in the assay with SN12C renal, in the assay on MOLT-4 leukemia and with SK-MEL-28 melanoma was above 100 µM in each case.

On to `O=C(Cn1c(C(=O)c2ccc(Cl)cc2)nc(-c2ccc(Cl)cc2)c1-c1ccc(Cl)cc1)c1ccccc1`, for which the GI50 in the assay with OVCAR-3 ovarian, in the assay on OVCAR-4 ovarian, with K-562 leukemia, with UACC-62 melanoma, in the assay with HL-60(TB) leukemia and with SW-620 colon was above 100 µM each time. The GI50 in the assay on MALME-3M melanoma, in the assay with SN12C renal, with MOLT-4 leukemia and with SK-MEL-28 melanoma was above 100 µM throughout. In addition, the TGI in the assay with OVCAR-3 ovarian, with OVCAR-4 ovarian, in the assay with K-562 leukemia, in the assay with UACC-62 melanoma, in the assay with HL-60(TB) leukemia and in the assay on SW-620 colon was above 100 µM throughout. Also, the concentration for total growth inhibition (TGI) with MALME-3M melanoma, with SN12C renal, in the assay on MOLT-4 leukemia and with SK-MEL-28 melanoma was above 100 µM throughout.

For the molecule `CC1=C/C=C/C(=O)O[C@@H]([C@H](C)[C@H](O)[C@@H](C)NC(=O)C(C)C)[C@H](C)/C=C/C(C)=C/[C@H]2C=CCC[C@@]2(C)\C=C\1`, the GI50 was 2.77 µM and 1.77 µM in the assay on OVCAR-3 ovarian; 6.47 µM in the assay with OVCAR-4 ovarian; 0.559 µM and 0.565 µM with K-562 leukemia; 0.418 µM and 0.62 µM with UACC-62 melanoma; 0.744 µM and 0.747 µM with HL-60(TB) leukemia; 0.705 µM and 0.303 µM with SW-620 colon. The GI50 in the assay with MALME-3M melanoma is 2.01 µM and 1.71 µM; in the assay with SN12C renal, 0.806 µM and 0.275 µM; in the assay with MOLT-4 leukemia, 8.41 µM; in the assay on SK-MEL-28 melanoma, 0.469 µM and 0.376 µM. Moreover, the TGI in the assay on OVCAR-3 ovarian is 9.33 µM; in the assay on OVCAR-4 ovarian, 21.9 µM; in the assay with K-562 leukemia it was 36.9 µM; with UACC-62 melanoma, 8.98 µM; with HL-60(TB) leukemia it was 9.12 µM and 13.7 µM; with SW-620 colon, 8.9 µM. The TGI with MALME-3M melanoma was 8.4 µM; with SN12C renal it was 8.46 µM; with MOLT-4 leukemia, 31.6 µM; in the assay on SK-MEL-28 melanoma, 8.48 µM.

In the case of `CC(=O)c1ccccc1NC(=O)C(=O)C(C(=O)c1ccc2ccccc2c1)C1OC(=O)c2ccccc21` (stereo not given), the TGI in the assay on OVCAR-3 ovarian worked out at 54.3 µM; in the assay with OVCAR-4 ovarian it was 57 µM; with K-562 leukemia, 70.3 µM; in the assay on UACC-62 melanoma, 28.1 µM; in the assay on HL-60(TB) leukemia, 43.6 µM; in the assay with SW-620 colon it was 40.6 µM. Besides, the TGI in the assay on MALME-3M melanoma is 23.3 µM; in the assay with SN12C renal, 37.9 µM; in the assay on MOLT-4 leukemia, above 100 µM; with SK-MEL-28 melanoma, 32.5 µM.

Consider `CCc1ccccc1NC(=O)C(C#N)C1=C(Cl)C(=O)c2ccccc2C1=O` (stereo not given), for which the TGI was above 100 µM in the assay with OVCAR-3 ovarian; 27.6 µM in the assay with OVCAR-4 ovarian; above 100 µM in the assay with K-562 leukemia; 31.2 µM in the assay on UACC-62 melanoma; 83.3 µM in the assay with HL-60(TB) leukemia; 44 µM in the assay on SW-620 colon. Further, the TGI was 19.5 µM with MALME-3M melanoma, 27.9 µM in the assay on SN12C renal, above 100 µM with MOLT-4 leukemia and 36.4 µM in the assay with SK-MEL-28 melanoma.

In the case of `[O-]/N=[N+](/[O-])C1CCCCC1=[N+]1CCOCC1` (stereo not given), the TGI in the assay with OVCAR-3 ovarian, with OVCAR-4 ovarian, in the assay on K-562 leukemia, in the assay with UACC-62 melanoma, with HL-60(TB) leukemia and in the assay with SW-620 colon was above 100 µM in each case. Further, the TGI in the assay on MALME-3M melanoma, with SN12C renal, in the assay with MOLT-4 leukemia and with SK-MEL-28 melanoma was above 100 µM throughout.

As to `Oc1cc(N2CC2)c(O)cc1N1CC1`, the GI50 with OVCAR-3 ovarian is 0.839 µM; with OVCAR-4 ovarian it was 2.28 µM; in the assay with K-562 leukemia, 1.2 µM; in the assay with UACC-62 melanoma, 0.918 µM; with HL-60(TB) leukemia it was 0.238 µM; in the assay on SW-620 colon, 0.372 µM. For the same molecule, the GI50 was 0.217 µM with MALME-3M melanoma, 0.586 µM in the assay with SN12C renal, 0.591 µM with MOLT-4 leukemia and 1.71 µM with SK-MEL-28 melanoma. The TGI in the assay with OVCAR-3 ovarian was 4.46 µM; in the assay on OVCAR-4 ovarian it was 8.9 µM; in the assay on K-562 leukemia it was 15.4 µM; with UACC-62 melanoma, 2.91 µM; in the assay with HL-60(TB) leukemia it was 2.14 µM; in the assay with SW-620 colon it was 7.37 µM. The TGI in the assay on MALME-3M melanoma stood at 0.55 µM; in the assay on SN12C renal it was 5.07 µM; in the assay with MOLT-4 leukemia, 7.89 µM; in the assay with SK-MEL-28 melanoma, 4.2 µM.

Turning to `CCCCCCCCCCCCCC[n+]1ccccc1`, the GI50 in the assay on OVCAR-3 ovarian is 0.674 µM; with OVCAR-4 ovarian, 0.32 µM; in the assay on K-562 leukemia, 0.357 µM; in the assay on UACC-62 melanoma, 0.96 µM; in the assay on HL-60(TB) leukemia, 0.262 µM; with SW-620 colon, 0.779 µM. Besides, the GI50 with MALME-3M melanoma is 0.401 µM; in the assay on SN12C renal it was 0.926 µM; in the assay with MOLT-4 leukemia it was 0.618 µM; in the assay with SK-MEL-28 melanoma, 1.31 µM. For the same molecule, the TGI in the assay on OVCAR-3 ovarian amounted to 2.26 µM; in the assay with OVCAR-4 ovarian, 2.91 µM; in the assay with K-562 leukemia, 6.25 µM; in the assay with UACC-62 melanoma it was 2.34 µM; in the assay on HL-60(TB) leukemia, 0.838 µM; in the assay on SW-620 colon, 2.59 µM. For the same molecule, the TGI with MALME-3M melanoma stood at 1.59 µM; in the assay on SN12C renal it was 2.5 µM; with MOLT-4 leukemia, 2.38 µM; with SK-MEL-28 melanoma it was 3.03 µM.

On to `COc1ccc(/C=C/C(=O)c2c(O)ccc3c(C)c(C(=O)O)oc23)cc1`, for which the GI50 with OVCAR-3 ovarian was 58.3 µM; in the assay on OVCAR-4 ovarian, above 100 µM; in the assay with K-562 leukemia, 36.2 µM; in the assay with UACC-62 melanoma it was 55 µM; with HL-60(TB) leukemia, 35.5 µM; in the assay with SW-620 colon, 56.3 µM. Besides, the GI50 in the assay on MALME-3M melanoma is 94.6 µM; in the assay with SN12C renal, 27.5 µM; with MOLT-4 leukemia it was 31 µM; with SK-MEL-28 melanoma it was above 100 µM. For the same molecule, the TGI with OVCAR-3 ovarian, in the assay with OVCAR-4 ovarian, in the assay on K-562 leukemia, with UACC-62 melanoma, with HL-60(TB) leukemia and in the assay on SW-620 colon was above 100 µM in each case. Moreover, the TGI in the assay with MALME-3M melanoma, with SN12C renal, in the assay with MOLT-4 leukemia and with SK-MEL-28 melanoma was above 100 µM throughout.

Values taken from PubChem BioAssay (NCI).
